Experimental data published in patent publication US20250000842A1, “Formulation of Resiniferatoxin” (Sorrento Therapeutics, Inc., priority 2017, published 2025).

Assay: Solubility comparison: recovery of RTX by HPLC after ambient and cold (5° C.) storage in various solutions
Type: physicochemical
Details: unmodified aqueous solution
Protocol: Independently of the formulations described in Example 1, a group of 12 surfactants was tested to compare the recovery of RTX based on HPLC analysis of samples following ambient and cold (5° C.) storage.

C=C(C)[C@]12C[C@@H](C)[C@@]34O[C@](Cc5ccccc5)(O[C@@H]1[C@@H]3C=C(COC(=O)Cc1ccc(O)c(OC)c1)C[C@]1(O)C(=O)C(C)=C[C@@H]41)O2 [RTX, resiniferatoxin]
solubility in water (in words): insolubility in water
